We go through 19 molecules from ChEMBL document CHEMBL4428037 (J Med Chem, 2016).

Assay [1] concerns the target Tubulin (Sus scrofa, UniProt P02554+P02550). The experiment in a line: (§1) Inhibition of porcine brain tubulin polymerization incubated for 60 mins by fluorescence-based assay.
The test system of assay [2] is MCF7. The assay can be described thus: cells. The conditions noted are these: Homo sapiens, MCF7, 72 h.
Assay [3] has as its system HepG2. The experiment in a line: Growth inhibition of human HepG2 cells incubated for 72 hrs by MTT assay. The assay is classed as functional, cell-based. The conditions noted are these: HepG2, 72 h. For orientation: Tetrazolium assays rely on reduction of a dye to a coloured formazan, in cell work by metabolically active cells.
Assay [4] relates to PC-3. The experiment in a line: Growth inhibition of human PC3 cells incubated for 72 hrs by MTT assay. In kind it is functional, cell-based. The following applies: PC-3, 72 h.
In assay [5] the test system is HeLa. The assay can be described thus: Growth inhibition of human HeLa cells incubated for 72 hrs by MTT assay. In kind it is functional, cell-based.
Assay [6] addresses T1, Tubulin (Sus scrofa) (UniProt P02554+P02550). The experiment in a line: Displacement of [3H]colchicine from biotinylated porcine tubulin at 1 uM incubated for 2 hrs by competition scintillation proximity. The assay is classed as protein assay. On the technique in general: Displacement assays read how much labelled ligand stays bound in the presence of the test substance.
For assay [7], the target named is T1, Tubulin (Sus scrofa). The assay can be described thus: Displacement of [3H]colchicine from biotinylated porcine tubulin at 5 uM incubated for 2 hrs by competition scintillation proximity. The assay is classed as protein assay.
In assay [8] the test system is A549. The experiment in a line: Induction of apoptosis in human A549 cells assessed as induction of chromatin condensation at 40 nM incubated for 24 hrs microscopy. In kind it is functional, cell-based.
Assay [9] relates to A549. The experiment in a line: Induction of apoptosis in human A549 cells assessed as necrotic cells level at 40 nM incubated for 24 hrs by Annexin V-FITC/PI staining based FACS flow cytometry (reference value: 0.37%). The assay is classed as functional. Background: Flow cytometry measures light scatter and fluorescence of single cells or particles in a stream.
Assay [10] concerns A549. The experiment in a line: Induction of apoptosis in human A549 cells assessed as induction of cell shrinkage at 40 nM incubated for 24 hrs microscopy. In kind it is functional, cell-based.
Assay [11] relates to A549. The experiment in a line: Induction of apoptosis in human A549 cells assessed as early apoptotic cells level at 40 nM incubated for 24 hrs by Annexin V-FITC/PI staining based FACS flow cytometry (reference value: 0.65%). The assay is classed as functional.
The subject of assay [12] is A549. The assay can be described thus: Induction of apoptosis in human A549 cells assessed as induction of nucleus fragmentation at 40 nM incubated for 24 hrs microscopy. The assay is classed as functional, cell-based.
For assay [13], the system named is A549. The assay can be described thus: Induction of apoptosis in human A549 cells assessed as late apoptotic cells level at 40 nM incubated for 24 hrs by Annexin V-FITC/PI staining based FACS flow cytometry (reference value: 2.15%). The assay is classed as functional.
For assay [14], the target named is T2, Tubulin alpha (Homo sapiens) (UniProt P0DPH7+P68366+Q71U36+P68363+Q9BQE3+Q6PEY2+A6NHL2+Q9NY65). The assay can be described thus: Inhibition of alpha tubulin polymerization in human A549 cells assessed as induction of microtubule network dis-organization at 40 nM by Immunofluorescent staining based fluorescence microscopy. In kind it is cell-based.
Assay [15] deals with T2, Tubulin alpha (Homo sapiens). The assay can be described thus: Inhibition of alpha tubulin polymerization in human A549 cells assessed as induction of cell border shrinkage of microtubules at 40 nM by Immunofluorescent staining based fluorescence microscopy.
The subject of assay [16] is A549. The experiment in a line: Induction of apoptosis in human A549 cells assessed as induction of cytoplasmic membrane blebbing at 40 nM incubated for 24 hrs microscopy. The assay is classed as functional, cell-based.
Assay [17] concerns A549. The assay can be described thus: Growth inhibition of human A549 cells incubated for 48 hrs by MTT assay. In kind it is functional, cell-based. The conditions noted are these: A549, 48 h.
In assay [18] the test system is A549. The assay can be described thus: Induction of apoptosis in human A549 cells assessed as live cells level at 40 nM incubated for 24 hrs by Annexin V-FITC/PI staining based FACS flow cytometry (reference value: 96.83%). The assay is classed as functional.
Assay [19] concerns A549. The experiment in a line: Induction of cell cycle arrest in human A549 cells assessed as accumulation at G2/M phase at 40 nM incubated for 24 hrs by propidium iodide staining based FACS flow cytometry. In kind it is functional.
Assay [20] relates to NCI-H460. The experiment in a line: Growth inhibition of human NCI-H460 cells incubated for 48 hrs by MTT assay. The assay is classed as functional, cell-based. The following applies: NCI-H460, 48 h.
Assay [21] deals with T1, Tubulin (Sus scrofa). The description is as §1.

Activity calls are given as the source filed them. The calls are words filed in the database; no cut-off is given here.

`COc1ccc(S(=O)(=O)Nc2cccnc2Nc2ccc(O)cc2)cc1` [ABT-751]: the IC50 came to 2790 nM in assay [1]; 3790 nM in assay [2]; 447 nM in assay [3]; 460 nM in assay [4]; 355 nM in [5]. The values for the inhibition in assay [6] and in assay [7] were 39% and 68%, respectively.

Consider `CCOc1cccc(Nc2nn(C)c3c2Cc2cc(OCC)c(OCC(=O)NCCN)cc2-3)c1`, for which the 50% inhibitory concentration (IC50) in assay [2] worked out at 1850 nM; in assay [3], 1400 nM; in [4], 1520 nM; in assay [5], 865 nM.

In the case of `CCOc1cccc(Nc2nn(C)c3c2Cc2cc(OCC)c(OCC(=O)NCCN(C)C)cc2-3)c1`, the IC50 was 2990 nM in [2], 340 nM in [3], 460 nM in assay [4] and 375 nM in assay [5].

On to `CCOc1cccc(Nc2nn(C)c3c2Cc2cc(OCC)c(OCC(=O)NN)cc2-3)c1`, for which the IC50 in assay [2] worked out at 579 nM; in assay [3], 400 nM; in assay [4] it was 760 nM; in assay [5], 350 nM.

On to `CCOc1cccc(Nc2nn(C)c3c2Cc2cc(OCC)c(OCC(=O)NCCC#N)cc2-3)c1`, for which the IC50 is 4610 nM in assay [2], 2420 nM in assay [3], 8600 nM in assay [4] and 1450 nM in [5].

`CCNC(=O)COc1cc2c(cc1OCC)Cc1c(Nc3cccc(OCC)c3)nn(C)c1-2`: the IC50 in assay [2] came to 1470 nM; in [3], 1310 nM; in assay [4] it was 3740 nM; in [5], 623 nM.

Turning to `CCOc1cccc(Nc2nn(C)c3c2Cc2cc(OCC)c(OCC(=O)NCCO)cc2-3)c1`, the IC50 was 662 nM in assay [2], 1800 nM in [3], 3680 nM in [4] and 415 nM in assay [5].

As to `COc1cc2c(c(OC)c1OC)-c1ccc(OC)c(=O)cc1[C@@H](NC(C)=O)CC2` [COLCHICINE], the result in assay [8], in assay [10], in assay [12] and in assay [16] was Active. The Activity in [9] worked out at 1.14%; in [11] it was 8.38%; in assay [13] it was 5.89%; in [18] it was 84.59%; in assay [19] it was 37%. The inhibition result in assay [14] and in assay [15] was “Active” each time. For the same molecule, the half-inhibitory concentration (IC50) is 59.1 nM in [17]; 47 nM in [2]; 19 nM in assay [3]; 7.6 nM in [5]; 49.3 nM in [20].

With `CCOc1cccc(Nc2nn(C)c3c2Cc2cc(OCC)c(OCC(=O)N(C)C)cc2-3)c1`, the half-maximal inhibitory concentration (IC50) is 6160 nM in assay [2], 920 nM in [3], 1780 nM in assay [4] and 720 nM in assay [5].

As for `CCOc1cccc(Nc2nn(C)c3c2Cc2cc(OCC)c(OCC(=O)NCC4CC4)cc2-3)c1`, the IC50 in [2] is more than 50000 nM; in assay [3], 1700 nM; in assay [4], 4600 nM; in [5] it was 3200 nM.

For `CCOc1cccc(Nc2nn(C)c3c2Cc2cc(OCC)c(OCC(=O)NO)cc2-3)c1`, the inhibition entry is “Dose-dependent effect” in assay [21], 31% in assay [6] and 63% in assay [7]. The IC50 in [1] is 5330 nM; in [2], 33.5 nM; in [3], 16.4 nM; in assay [4], 23.5 nM; in assay [5] it was 13.2 nM.

For `CCOc1cccc(Nc2nn(C)c3c2Cc2cc(OCC)c(OCC(=O)NC)cc2-3)c1`, the IC50 was 892 nM in assay [2], 142 nM in assay [3], 640 nM in assay [4] and 90 nM in assay [5].

Turning to `CCOc1cccc(Nc2nn(C)c3c2Cc2cc(OCC)c(OCC(=O)NOC)cc2-3)c1`, the concentration for half-maximal inhibition (IC50) in [2] was found to be 1670 nM; in assay [3], 853 nM; in [4] it was 2900 nM; in [5], 470 nM.

For the molecule `C=CCNC(=O)COc1cc2c(cc1OCC)Cc1c(Nc3cccc(OCC)c3)nn(C)c1-2`, the IC50 in assay [2] is 765 nM; in [3] it was 853 nM; in assay [4] it was 1940 nM; in assay [5], 690 nM.

`COc1ccc(/C=C\c2cc(OC)c(OC)c(OC)c2)cc1O` [COMBRETASTATIN A4]: the IC50 turned out to be 49 nM in assay [17]; 12.5 nM in [2]; 2.1 nM in [3]; 3.4 nM in assay [4]; 35.8 nM in assay [20]. Also, the inhibition in [7] is 92%.

Regarding `C#CCNC(=O)COc1cc2c(cc1OCC)Cc1c(Nc3cccc(OCC)c3)nn(C)c1-2`, the half-maximal inhibitory concentration (IC50) in assay [2] stood at 2110 nM; in assay [3], 587 nM; in [4] it was 1780 nM; in [5], 505 nM.

As to `CCOc1cccc(Nc2nn(C)c3c2Cc2cc(OCC)c(OCC(=O)NCCOC)cc2-3)c1`, the IC50 in assay [2] turned out to be 1530 nM; in [3] it was 447 nM; in assay [4] it was 800 nM; in assay [5], 490 nM.

`CC(=O)O[C@H]1C(=O)[C@@]2(C)[C@H]([C@H](OC(=O)c3ccccc3)[C@]3(O)C[C@H](OC(=O)[C@H](O)[C@@H](NC(=O)c4ccccc4)c4ccccc4)C(C)=C1C3(C)C)[C@]1(OC(C)=O)CO[C@@H]1C[C@@H]2O` [PACLITAXEL]: the IC50 in [4] came to 21 nM; in assay [5], 18 nM.

Consider `CCOc1cccc(Nc2nn(C)c3c2Cc2cc(OCC)c(OCC(=O)NC4CC4)cc2-3)c1`, for which the half-inhibitory concentration (IC50) in assay [2] was found to be 3070 nM; in assay [3] it was 653 nM; in [4], 1400 nM; in assay [5] it was 720 nM.

As a reminder, the IC50 is the concentration that gives 50% inhibition. Low values mean higher potency, high ones lower potency. The term inhibition denotes how much of the control response was suppressed.
